Structures are written as SMILES.

The text below walks through data of US11230526B1, “Cylcoalkenyl derivatives useful as agonists of the GPR120 and/or GPR40 receptors” (Janssen Pharmaceutica NV, priority 2018, dated 2022).

Holding throughout (type): cell-based
Assay [1] concerns the target T1, long form of human GPR120 (Homo sapiens, UniProt Q5NUL3).
T1 construct: host or cells: PathHunter CHO-K1 GPR120 β-Arrestin Cell Line
Description: Human GPR120 DiscoveRx PathHunter Beta-Arrestin assay, Procedure β-arrestin A. From the text: Human GPR120 DiscoveRx PathHunter® Beta-Arrestin Assay Assay Principle:
The binding of an agonist (medium/long chain fatty acids or small molecule agonists) to the G-protein-coupled receptor GPR120 activates phospholipase C, leading to release of intracellular Ca^+2 through the generation of inositol 1,4,5-trisphosphate (InsP3 or IP3). GPR120 activation can also trigger intracellular signaling via recruitment of Beta-Arrestin. In the present method, agonist-induced activation of the human GPR120 receptor is monitored through the use of PathHunter® CHO-K1 GPR120 Beta-Arrestin Cell Line engineered by DiscoveRx, as detailed below. The cell lines are designed to co-express both the ProLink/Enzyme Donor (PK)-tagged GPCR and the Enzyme […] (EA)-tagged Beta-Arrestin fusion proteins. Upon GPR120 receptor stimulation/activation, the EA-tagged Beta-Arrestin portion is translocated to the tagged receptor, where the two enzyme fragments are brought within close proximity. Under these conditions, these fragments can interact and form an active Beta-gal enzyme complex through Enzyme Fragment Complementation (EFC). This active Beta-gal complex can enzymatically hydrolyse the substrate to produce a detectable light signal; therefore, activation as a function of agonist concentration can be expressed as an EC50 value to determine relative compound activities. This in vitro assay therefore serves to assess compound agonist activity of the GPR120.
In Procedure β-arrestin A, the cell used were PathHunter® CHO-K1 GPR120 β-Arrestin Cell Line, expressing the long form of human GPR120 (Genbank accession number NM_181745), with 3000 cells per well.
The selected CHO-K1 GPR120 β-Arrestin cells were cultured in Ham's F12 media supplemented with 10% fetal bovine serum (FBS), 1% Glutamine, 1×p/s, 800 μg/mL G418 and 300 μg/mL Hygromycin B (for selection). Cell stocks were maintained and grown in a sub-confluent state using standard cell culture procedures. The day before the experiment, the cells were harvested with non-enzymatic cell dissociation buffer and re-suspended in complete growth media at the desired concentration. A Corning 384-plate was then seeded with the proper number of cells in a volume of 25 μL, per well. The seeded plates were incubated overnight at 37° C.
On the day of the experiment, the Assay Buffer containing (a) HBSS with Ca^++ and Mg^++, (b) 20 mM HEPES, and (c) 0.1% BSA stabilizer (pH 7.4) was prepared. The growth medium was gently removed from the cell plates and 20 μL of Assay Buffer added to each well. The plate was then incubated at 37° C. for 60 min. Test compounds were serially diluted in Assay Buffer to desired concentrations (more particularly to one or more of the following μM concentrations: 25, 12.5, 6.25, 3.12, 1.56, 0.78, 0.39, 0.19, 0.10, 0.05, 0.02, 0.01). Five μL of compound dilution was then added to each well and the plate incubated at 37° C. for 90 min. The detection reagents were prepared according to the manufacture's instruction. Twelve μL of the detection reagents were added to each well and the plate incubated at room temperature for 60 min.
The plates were read on an EnVision instrument, using Protocol name: Luminescence, Plate type: 384 Costar, Measurement height: 3 mm, Measurement time: 1 s, Aperture: 384 Plate aperture. The % Activity relative to the positive control was calculated using the following equation:
The % Activity values were plotted versus the concentration of test compound and fitted to a sigmoidal dose-response curve with a Hill slope=1 (fixed value) using nonlinear regression with GraphPad Prism 5.0 to calculate the EC50 values. The Fitting Equation was: Y=Bottom+(Top-Bottom)/(1+10^((Log EC50−X)*HillSlope)), where X is the log of the concentration and Y is the response.

The target of another assay is T2, human GPR40 (Homo sapiens, UniProt O14842).
T2 construct: expressed in transfected cells
T2 sequence (O14842 whole entry): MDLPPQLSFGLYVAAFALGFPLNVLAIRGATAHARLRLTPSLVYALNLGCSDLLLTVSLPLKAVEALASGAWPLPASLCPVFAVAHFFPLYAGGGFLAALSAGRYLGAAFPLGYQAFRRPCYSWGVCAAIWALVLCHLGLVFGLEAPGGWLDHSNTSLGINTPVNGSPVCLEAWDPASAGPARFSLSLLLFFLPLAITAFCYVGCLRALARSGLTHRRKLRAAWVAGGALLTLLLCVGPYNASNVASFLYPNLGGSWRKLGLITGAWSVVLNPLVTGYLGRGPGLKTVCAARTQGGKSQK
Description: GPR40 calcium flux assay, human GPR40. The conditions noted are these: HEK293 cells stably expressing GPR40; table does not say human or rat. The gist of the method:
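Cells preincubated 1 h at 37° C. in HBSS, 20 mM HEPES, 0.1% BSA, then Fluo 8 calcium dye 30 min at 37° C. and 15 min at room temperature.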

For a further assay, the target named is T3, Human GPR120 short form (Homo sapiens, UniProt Q5NUL3).
T3 construct: expressed in transfected cells
T3 sequence (Q5NUL3 1-361): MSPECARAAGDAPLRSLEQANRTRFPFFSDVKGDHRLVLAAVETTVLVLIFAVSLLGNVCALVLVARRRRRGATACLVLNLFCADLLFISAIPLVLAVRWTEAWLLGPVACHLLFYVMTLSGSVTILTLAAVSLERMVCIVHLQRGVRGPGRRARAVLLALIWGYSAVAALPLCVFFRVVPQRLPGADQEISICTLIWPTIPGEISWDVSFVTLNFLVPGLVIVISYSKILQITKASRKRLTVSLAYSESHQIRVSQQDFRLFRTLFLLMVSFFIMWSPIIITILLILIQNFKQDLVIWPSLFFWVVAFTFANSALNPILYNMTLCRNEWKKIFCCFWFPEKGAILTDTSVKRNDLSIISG
Briefly: Human GPR120 calcium flux assay, Procedure Calcium B (4200 cells/well). The gist of the method: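 Agonist EC50 came from a four-parameter fit of RFU (Fmax−Fmin) read over 300 s on FLIPR. Cells were HEK293 stably transfected with human GPR120 (NM_001195755.1) at 4200 per well, serum-starved 1 h and loaded with Fluo-4 NW dye with probenecid before ligand addition.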
A general note: Calcium assays in cells follow changes in intracellular calcium, usually with a dye or a luminescent sensor.

T1 sequence (Q5NUL3 1-377 isoform Q5NUL3-1): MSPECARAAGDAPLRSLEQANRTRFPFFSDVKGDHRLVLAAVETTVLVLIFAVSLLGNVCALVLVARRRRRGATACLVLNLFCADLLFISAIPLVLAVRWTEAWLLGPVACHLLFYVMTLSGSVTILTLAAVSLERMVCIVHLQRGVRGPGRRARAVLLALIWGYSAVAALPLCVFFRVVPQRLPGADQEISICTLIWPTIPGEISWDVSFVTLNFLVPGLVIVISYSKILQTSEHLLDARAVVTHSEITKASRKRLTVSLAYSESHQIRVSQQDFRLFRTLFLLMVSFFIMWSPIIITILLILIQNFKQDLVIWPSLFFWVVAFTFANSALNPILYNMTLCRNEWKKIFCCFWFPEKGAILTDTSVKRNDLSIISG
T1 sequence (P32121 whole entry partner): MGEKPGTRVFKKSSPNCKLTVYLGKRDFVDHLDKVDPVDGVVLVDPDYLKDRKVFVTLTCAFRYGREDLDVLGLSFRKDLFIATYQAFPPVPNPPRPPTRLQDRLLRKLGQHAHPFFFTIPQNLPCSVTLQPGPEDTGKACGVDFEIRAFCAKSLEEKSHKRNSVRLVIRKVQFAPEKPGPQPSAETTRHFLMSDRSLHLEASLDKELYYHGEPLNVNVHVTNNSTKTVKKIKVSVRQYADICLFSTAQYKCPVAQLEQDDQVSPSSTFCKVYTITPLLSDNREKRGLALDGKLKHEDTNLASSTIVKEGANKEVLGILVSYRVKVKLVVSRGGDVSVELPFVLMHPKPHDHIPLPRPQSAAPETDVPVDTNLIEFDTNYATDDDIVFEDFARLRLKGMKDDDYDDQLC

For orientation: EC50 means the concentration that produces a half-maximal response. Regarding `O=C(O)CCc1ccc(OCC2=C(c3ccc(Cl)cc3)CCC2)cc1Cl` [Compound 143, 3-[2-chloro-4-[[2-(4-chlorophenyl)cyclopenten-1-yl]methoxy]phenyl]Propanoic Acid], the EC50 in assay [1] turned out to be 466 nM; on human GPR40 it was 365 nM.

For the compound `Cc1c(CCC(=O)O)ccc(OCC2=C(c3cccc(F)c3)CC(F)(F)C2)c1C` [Compound 192, 3-[4-[[4,4-difluoro-2-(3-fluorophenyl)cyclopenten-1-yl]methoxy]-2,3-dimethyl-phenyl]Propanoic Acid], the EC50 at Human GPR120 short form is 62 nM; in assay [1], 320 nM.

For `Cc1c(CCC(=O)O)ccc(OCC2=C(c3ccc(Cl)cc3)CC(F)(F)CC2)c1C` [Compound 568, 3-[4-[[2-(4-chlorophenyl)-4,4-difluoro-cyclohexen-1-yl]methoxy]-2,3-dimethyl-phenyl]Propanoic Acid], the EC50 was 202 nM on Human GPR120 short form and 363 nM in assay [1].

Take `Cc1c(CCC(=O)O)ccc(OCC2=C(c3cncs3)CCC(F)(F)C2)c1C` [Compound 547, 3-[4-[(5,5-difluoro-2-thiazol-5-yl-cyclohexen-1-yl)methoxy]-2,3-dimethyl-phenyl]Propanoic Acid]: the EC50 on Human GPR120 short form worked out at 388 nM; in assay [1], 1800 nM.

`CCc1cc(OCC2=C(c3ccc(Cl)cc3)CCC2)ccc1CCC(=O)O` [Compound 161, 3-[4-[[2-(4-chlorophenyl)cyclopenten-1-yl]methoxy]-2-ethyl-phenyl]Propanoic Acid]: the EC50 in assay [1] came to 680 nM; on human GPR40, 401 nM.

In the case of `Cc1c(CCC(=O)O)ccc(OCC2=C(c3ccco3)CCC(F)(F)C2)c1C` [Compound 552, 3-[4-[[5,5-difluoro-2-(2-furyl)cyclohexen-1-yl]methoxy]-2,3-dimethyl-phenyl]Propanoic Acid], the EC50 on Human GPR120 short form is 155 nM; in assay [1], 476 nM.

On to `Cc1c(CCC(=O)O)ccc(OCC2=C(c3ccc(Cl)c(F)c3)CCC(F)(F)C2)c1C` [Compound 526, 3-[4-[[2-(4-chloro-3-fluoro-phenyl)-5,5-difluoro-cyclohexen-1-yl]methoxy]-2,3-dimethyl-phenyl]Propanoic Acid], for which the EC50 on Human GPR120 short form worked out at 873 nM; in assay [1], 3840 nM.

Take `Cc1c(CCC(=O)O)ccc(OCC2=C(c3ccc(F)c(F)c3)CCC(F)(F)C2)c1C` [Compound 531, 3-[4-[[2-(3,4-difluorophenyl)-5,5-difluoro-cyclohexen-1-yl]methoxy]-2,3-dimethyl-phenyl]Propanoic Acid]: the concentration for a half-maximal effect (EC50) at Human GPR120 short form is 117 nM; in assay [1], 287 nM.

As for `Cc1c(CCC(=O)O)ccc(OCC2=C(c3cccs3)CCC(F)(F)C2)c1C` [Compound 557, 3-[4-[[5,5-difluoro-2-(2-thienyl)cyclohexen-1-yl]methoxy]-2,3-dimethyl-phenyl]Propanoic Acid], the results for the EC50 (on Human GPR120 short form; in assay [1]) were 149 nM and 302 nM, respectively.

For `Cc1ncc(C2=C(COc3c(F)cc(CCC(=O)O)cc3F)CC(F)(F)CC2)s1` [Compound 554, 3-[4-[[5,5-difluoro-2-(2-methylthiazol-5-yl)cyclohexen-1-yl]methoxy]-3,5-difluoro-phenyl]Propanoic Acid], the EC50 on Human GPR120 short form turned out to be 727 nM; in assay [1] it was 1020 nM.

In the case of `O=C(O)CCc1ccc(OCC2=C(c3ccc(Cl)cc3)CCC2)cc1-c1ccccc1` [Compound 136, 3-[4-[[2-(4-chlorophenyl)cyclopenten-1-yl]methoxy]-2-phenyl-phenyl]Propanoic Acid], the values for the EC50 (in assay [1]; at human GPR40) were 788 nM and above 5000 nM, respectively.

For `O=C(O)CCc1cc(F)c(OCC2=C(c3cccs3)CCC(F)(F)C2)c(F)c1` [Compound 559, 3-[4-[[5,5-difluoro-2-(2-thienyl)cyclohexen-1-yl]methoxy]-3,5-difluoro-phenyl]Propanoic Acid], the figures for the 50% effective concentration (EC50) (on Human GPR120 short form; in assay [1]) were 238 nM and 409 nM, respectively.

With `Cc1c(CCC(=O)O)ccc(OCC2=C(c3ccc(Cl)s3)CCC(F)(F)C2)c1C` [Compound 563, 3-[4-[[2-(5-chloro-2-thienyl)-5,5-difluoro-cyclohexen-1-yl]methoxy]-2,3-dimethyl-phenyl]Propanoic Acid], the EC50 was 120 nM at Human GPR120 short form and 237 nM in assay [1].

`Cc1cc(CCC(=O)O)ccc1OCC1=C(c2ccccc2)CCC(F)(F)C1` [Compound 538, 3-[4-[(5,5-difluoro-2-phenyl-cyclohexen-1-yl)methoxy]-3-methyl-phenyl]Propanoic Acid]: the EC50 at Human GPR120 short form is 89 nM; in assay [1], 159 nM.

Regarding `Cc1ccc(C2=C(COc3ccc(CCC(=O)O)cc3C)CC(F)(F)CC2)s1` [Compound 561, 3-[4-[[5,5-difluoro-2-(5-methyl-2-thienyl)cyclohexen-1-yl]methoxy]-3-methyl-phenyl]Propanoic Acid], the results for the EC50 (at Human GPR120 short form; in assay [1]) were 71 nM and 120 nM, respectively.

Turning to `Cc1c(CCC(=O)O)ccc(OCC2=C(c3cnn(C)c3)CCC(F)(F)C2)c1C` [Compound 545, 3-[4-[[5,5-difluoro-2-(1-methylpyrazol-4-yl)cyclohexen-1-yl]methoxy]-2,3-dimethyl-phenyl]Propanoic Acid], the EC50 was found to be 977 nM at Human GPR120 short form and 1660 nM in assay [1].

Consider `Cc1c(CCC(=O)O)ccc(OCC2=C(c3ccc(Cl)cc3)CC(C#N)C2)c1C` (stereo not shown) [Compound 196, 3-[4-[[2-(4-chlorophenyl)-4-cyano-cyclopenten-1-yl]methoxy]-2,3-dimethyl-phenyl]Propanoic Acid], for which the EC50 at Human GPR120 short form is 743 nM; in assay [1], 996 nM.

`Cc1cc(CCC(=O)O)ccc1OCC1=C(c2ccc(Cl)c(F)c2)CCC(F)(F)C1` [Compound 527, 3-[4-[[2-(4-chloro-3-fluoro-phenyl)-5,5-difluoro-cyclohexen-1-yl]methoxy]-3-methyl-phenyl]Propanoic Acid]: the EC50 at Human GPR120 short form was found to be 885 nM; in assay [1], 498 nM.

`Cc1cc(CCC(=O)O)ccc1OCC1=C(c2cncs2)CC(F)(F)C1` [Compound 190, 3-[4-[(4,4-difluoro-2-thiazol-5-yl-cyclopenten-1-yl)methoxy]-3-methyl-phenyl]Propanoic Acid]: the EC50 worked out at 442 nM at Human GPR120 short form and 1050 nM in assay [1].

On to `Cc1c(CCC(=O)O)ccc(OCC2=C(c3ccc(F)c(F)c3)CC(F)(F)C2)c1C` [Compound 177, 3-[4-[[2-(3,4-difluorophenyl)-4,4-difluoro-cyclopenten-1-yl]methoxy]-2,3-dimethyl-phenyl]Propanoic Acid], for which the EC50 is 53 nM on Human GPR120 short form and 73 nM in assay [1].
